{
  "source": "paper PMC3356977",
  "about": "“Chemical Inhibition of Bacterial Protein Tyrosine Phosphatase Suppresses Capsule Production” (PLoS ONE, 2012)",
  "target": "T1, CpsB (Streptococcus pneumoniae, UniProt Q9AHD4)",
  "T1 construct": "His6CpsB",
  "T1 sequence (Q9AHD4 whole entry, looked up)": "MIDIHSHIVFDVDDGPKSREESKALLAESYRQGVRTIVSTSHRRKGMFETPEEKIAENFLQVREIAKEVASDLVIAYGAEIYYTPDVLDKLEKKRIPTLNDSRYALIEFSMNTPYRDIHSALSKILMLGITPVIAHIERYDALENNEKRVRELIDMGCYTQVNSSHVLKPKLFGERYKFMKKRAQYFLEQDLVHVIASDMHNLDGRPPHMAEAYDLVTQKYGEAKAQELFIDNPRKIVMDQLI",
  "experiment": "inhibition of pNPP dephosphorylation by purified His6CpsB (A410)",
  "assay_type": "biochemical",
  "data": [
    {"smiles": "CC(C)=CCC/C(C)=C/CC/C(C)=C/CC/C(C)=C/Cc1cc(OS(=O)(=O)O)ccc1O", "note": "[FQE, fascioquinol E]", "values": [
      {"measurement": "IC50", "value": 5.21, "unit": "µM"}
    ]}
  ]
}
